The target in the test is T1, CRF receptor (Rattus norvegicus, UniProt P35353).
T1 construct: 100 μl of membrane suspension as prepared above to give a total reaction volume of 300 μl; from tissue; host or cells: rat cerebral cortex membrane homogenate
T1 sequence (P35353 24-415): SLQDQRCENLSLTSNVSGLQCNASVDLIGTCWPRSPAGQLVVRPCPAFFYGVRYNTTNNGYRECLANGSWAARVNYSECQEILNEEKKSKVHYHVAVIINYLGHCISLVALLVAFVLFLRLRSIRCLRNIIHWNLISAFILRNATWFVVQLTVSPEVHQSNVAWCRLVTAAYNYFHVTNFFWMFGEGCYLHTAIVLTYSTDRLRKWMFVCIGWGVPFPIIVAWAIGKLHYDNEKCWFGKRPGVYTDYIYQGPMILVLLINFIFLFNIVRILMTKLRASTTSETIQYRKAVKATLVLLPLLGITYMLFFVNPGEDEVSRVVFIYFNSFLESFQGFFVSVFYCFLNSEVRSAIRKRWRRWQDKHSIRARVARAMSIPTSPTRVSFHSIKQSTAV
Nature of the test: In vitro CRF receptor binding assay (competition with [125I] ovine CRF, rat cortex membranes). The conditions noted are these: read-out: Inhibition Ki. How it is done: In vitro Receptor Binding Assay
Tissue Preparation: Male Sprague Dawley rats (180-200 g) were sacrificed by decapitation and the cortex was dissected on ice, frozen whole in liquid nitrogen and stored at −70° C. until use. On the day of assay, frozen tissue was weighed and homogenized in 20 volumes of ice cold buffer containing 50 mM Tris, 10 mM MgCl2, 2 mM EGTA, pH 7.0 at 22° C. using a Polytron (Brinkmann Instruments, Westbury, N.Y.; setting 6) for 20 s. The homogenate was centrifuged at 48,000× g for 10 min at 4° C. The supernatant was discarded, and the pellet was re-homogenized in the same volume of buffer and centrifuged at 48,000× g for 10 min at 4° C. The resulting pellet was resuspended in the above buffer to a final concentration of 20-40 mg original wet weight/mL and used in the assays described below.
CRF Receptor Binding: Receptor binding assays were carried out essentially as described by E. B. De Souza, J. Neurosci. […]
All assays were carried out at equilibrium for 2 h at 22° C. as described by E. B. De Souza, J. Neurosci. […] The reaction was terminated by centrifugation of the tubes in a Beckman microfuge for 5 min at 12,000× g. Aliquots of the supernatant were collected to determine the “free” radioligand concentration. The remaining supernatant was aspirated and the pellets washed gently with ice-cold PBS plus 0.01% Triton X-100; centrifuged again and monitored for bound radioactivity as described above. […] This program has the distinct advantage of fitting the raw experimental data on an untransformed coordinate system where errors are most likely to be normally distributed and uncorrelated with the independent variable. […] The parameters for the affinity constants (KD) and receptor densities (Bmax) are also provided along with statistics on the general “fit” of the estimated parameters to the raw data.
Competition Curve Analysis
The resulting pellets were surface washed twice by centrifugation with 1 mL of ice-cold phosphate buffered saline and 0.01% Triton X-100; the supernatants discarded and the pellets monitored for radioactivity at approximately 80% efficiency. The level of non-specific binding was defined in the presence of […] unlabeled rat/humanCRF (r/hCRF). Data from competition curves were analyzed by the program LIGAND. […] Routinely, the data were analyzed using a one- and two-site model comparing the “goodness of fit” between the models in order to accurately determine the Ki. Statistical analyses provided by LIGAND allowed the determination of whether a single-site or multiple-site model should be used.
In Table 17; the Ki values were determined using the assay conditions described above.

The mark [1] stands for this setting: competition with [125I] ovine CRF, 2 h at 22° C., Ki classes.

Read-outs that look alike come from different tables or passages of the source.

The results in this text go back to patent US6342503B1, “1N-alkyl-n-arylpyrimidinamines and derivatives thereof” (DuPont Pharmaceuticals Company, priority 1993, dated 2002).

For orientation: Ki means a dissociation constant, usually derived from enzyme kinetics or from competition with a known ligand. With `CCN(c1nc(C)nc(N2CCOCC2)n1)c1ccc(C(C)C)cc1I` [compound 136], the Ki is under 0.5 µM. `CCN(c1nc(C)cc(OCCCSC)n1)c1ccc(C(C)C)cc1Br` [compound 150]: the inhibitory constant (Ki) is under 0.5 µM.

For `CCN(c1nc(C)cc(-c2cccs2)n1)c1ccc(C(C)C)cc1Br` [compound 31, N-(2-Bromo-4-(1-methylethyl)phenyl)-N-ethyl-6-methyl-4-(2-thienyl)-2-pyrimidinamine], the Ki is under 0.5 µM.

As to `Cc1cc(-c2ccccc2)c2ccn(-c3ccc(C(C)C)cc3Br)c2n1` [Example 261], the inhibitory constant (Ki) is under 0.5 µM. On the same count and under the same terms, as for `CCCCc1ccc(N(CC)c2nc(CC)cc(CC)n2)c(Br)c1` [compound 24], the figure is 0.501 to 2 µM; as for `Cc1cc(C)nc(N2CCCSc3cc(C(C)C)ccc32)n1` [compound 173], 0.501 to 2 µM. The same measure, in the same setting: as for `CCSc1cc(C(C)C)ccc1N(CC)c1nc(C)cc(C)n1` [compound 175, N-(2-ethylthio-4-(1-methylethyl)phenyl)-N-ethyl-4,6dimethyl-2-pyrimidinamine], the figure is 0.501 to 2 µM. Turning to `CCN(c1nc(C)cc(COCc2ccncc2)n1)c1ccc(C(C)C)cc1Br` [compound 219], the Ki was under 0.5 µM. Still for that read-out and setting: under `CCN(c1nc(C)cc(COCc2ccco2)n1)c1ccc(C(C)C)cc1Br` [compound 221] stands under 0.5 µM; under `Cc1cc(-c2ccccc2)c2c(C#N)cn(-c3ccc(C(C)C)cc3Br)c2n1` [Example 256], under 0.5 µM. Turning to `CCN(c1nc(C)nc(Cl)n1)c1ccc(C(C)C)cc1Br` [compound 250], the inhibitory constant (Ki) was 0.501 to 2 µM. For the molecule `Cc1ccc(N(C)c2nc(C)cc(C)n2)c(Br)c1` [compound 1, N-(2-bromo-4-methylphenyl)-N-methyl-4,6-dimethyl-2-pymidinamine], the Ki was in the range of 0.501 to 2 µM.

`CCN(c1nc(C)cc(COc2ccc(OC)cc2)n1)c1ccc(C(C)C)cc1Br` [compound 208]: the Ki was under 0.5 µM. `CCCCc1ccc(N(CC)c2nc(C)cc(C)n2)c(Br)c1` [compound 19]: the Ki is under 0.5 µM.

`Cc1cc(C)nc(N(C)c2ccc(C(C)C)cc2)n1` [compound 66]: the Ki is 2 to 10 µM. As for `CCN(c1nc(C)cc(COCCOC)n1)c1ccc(C(C)C)cc1Br` [compound 227], the Ki was under 0.5 µM.

`C=CCN(c1nc(C)cc(N2CCOCC2)n1)c1ccc(C(C)C)cc1Br` [compound 17]: the Ki was under 0.5 µM.

Consider `CCN(CC)c1nc(C)nc(N(CC)c2ccc(C(C)C)cc2Br)n1` [compound 232], for which the Ki was under 0.5 µM. Regarding `CCN(c1nc(C)cc(OCCN(C)C)n1)c1ccc(C(C)C)cc1Br` [compound 161], the Ki was under 0.5 µM. As to `CCN(c1nc(C)cc(N2CCOCC2)n1)c1ccc(C(C)C)cc1Br` [compound 16, N-(2-bromo-4-(1-methylethyl)phenyl)-N-ethyl-4-morpholino-6-methyl-2-pymidinamine], under setting [1], the Ki was under 0.5 µM. For `CCN(c1nc(C)cc(C)n1)c1c(OC)cc(C)cc1OC` [compound 51], the Ki lay within 0.501 to 2 µM. The same measure, in the same setting: under `CCN(c1nc(C)cc(N)n1)c1ccc(C(C)C)cc1Br` [compound 155] stands under 0.5 µM; under `CCN(c1nc(C)cc(NN)n1)c1ccc(C(C)C)cc1Br` [compound 146], 2 to 10 µM; under `CCN(c1nc(C)cc(C(=O)N2CCOCC2)n1)c1ccc(C(C)C)cc1Br` [compound 58, N-(2-bromo-4-(1-methylethyl)phenyl)-N-ethyl-4-methyl-6-(4-morpholinylcarbonyl)-2-pyrimidinamine], under 0.5 µM.

As to `Cc1cc(C)c2ccn(-c3ccc(C(C)C)cc3Br)c2n1` [Example 257], the Ki was under 0.5 µM. As to `CCN(c1nc(C)cc(Cl)n1)c1ccc(C(C)C)cc1Br` [compound 154], the Ki was under 0.5 µM.

Take `CCN(c1nc(C)cc(C)n1)c1ccc(C(C)OC)cc1SC` (stereo not shown) [compound 189, N-(4-(1-methoxyethyl)-2-methylthiophenyl)-N-ethyl-4,6-dimethyl-2-pyrimidinamine]: the Ki was under 0.5 µM. With `CCN(c1nc(C)cc(C)n1)c1ccc(OC(C)C)cc1Br` [compound 57, N-(2-Bromo-4-(isopropoxy)phenyl)-N-ethyl-4,6dimethyl-2-pymidinamine], the Ki was under 0.5 µM. For `CCN(c1nc(C)cc(COCc2cc(OC)c(OC)c(OC)c2)n1)c1ccc(C(C)C)cc1Br` [compound 212], the Ki was under 0.5 µM. Turning to “N-ethyl-N-(2-bromo-4-(2-methoxyethyl)phenyl)4-morpholino-6-methyl-2-pyrimidinamine [compound 29]”, the Ki under setting [1] was under 0.5 µM.

Consider `CCN(c1nc(C)cc(C)n1)c1ccc(COC)cc1I` [compound 172, N-(2-iodo-4-methoxymethylphenyl)-N-ethyl-4,6-dimethyl-2-pyrimidinamine], for which the Ki is under 0.5 µM. For `CCN(c1nc(C)cc(COCCO)n1)c1ccc(C(C)C)cc1Br` [compound 225, N-(2-Bromo-4-(1-methylethyl)phenyl)-N-ethyl-4-hydroxyethoxymethyl-6-methyl-2-pyrimidinamine], the inhibition constant (Ki) was under 0.5 µM. Consider `CCN(c1nc(C)cc(CN2CCOCC2)n1)c1ccc(C(C)C)cc1Br` [compound 59, N-(2-bromo-4-(1-methylethyl)phenyl)-N-ethyl-6-methyl-4-(4-morpholinylmethyl)-2-pyrmidinamine], for which, under setting [1], the Ki was under 0.5 µM.

Turning to `CCN(c1nc(C)cc(SC)n1)c1ccc(C(C)C)cc1Br` [compound 140, N-(2-bromo-4-(1-methylethyl)phenyl)-N-ethyl-4-methyl-6-(thiomethyl)-2-pyrimidinamine], the inhibition constant (Ki) is under 0.5 µM. `Cc1cc(Cl)c2ccn(-c3ccc(C(C)C)cc3Br)c2n1` [Example 259]: the Ki is under 0.5 µM. Turning to `Cc1cc(C)nc(N(C)c2ccc(C(C)C)cc2Br)n1` [compound 4, N-(2-bromo-4-(1-methylethyl)phenyl)-N-methyl-4,6-dimethyl-2-pymidinamine], the Ki is under 0.5 µM.

As for `CCN(c1nc(C)cc(C=O)n1)c1ccc(C(C)C)cc1Br` [compound 222, N-(2-Bromo-4-(1-methylethyl)phenyl)-N-ethyl-4-formyl-6-methyl-2-pyrimidinamine], the Ki is 0.501 to 2 µM. `CCc1ccc(N(CC)c2nc(C)cc(C)n2)c(SC)c1` [compound 182, N-(4-ethyl-2-methylthiophenyl)-N-ethyl-4,6-dimethyl-2-pyrimidinamine]: the Ki is under 0.5 µM.

For `CCN(c1nc(C)cc(C(=O)NC)n1)c1ccc(C(C)C)cc1Br` [compound 271], the Ki is under 0.5 µM. As for `CCN(c1nc(C)cc(C(C)(C)O)n1)c1ccc(C(C)C)cc1Br` [compound 295], the Ki was under 0.5 µM. On the same count and under the same terms, under `CCN(c1nc(C)nc(N(C)C)n1)c1c(Br)cc(OC)cc1OC` [compound 238] stands under 0.5 µM; under `CCN(c1nc(C)cc(OC[C@@H]2CCCN2C)n1)c1ccc(C(C)C)cc1SC` [compound 177, N-(2-methylthio4-(1-methylethyl)phenyl)-N-ethyl-4(S)-(N-methyl-2′-pyrrolidinomethoxy)-6-methyl-2-pyrimidinamine], 0.501 to 2 µM; under `CCN(c1nc(C)cc(C)n1)c1ccc(OC)cc1Br` [compound 206], under 0.5 µM. On the same count and under the same terms, under `CCN(c1nc(C)nc(N2CCCCC2)n1)c1ccc(C(C)C)cc1I` [compound 137] stands under 0.5 µM; under `CCN(c1nc(C)cc(CN2CCN(c3ccccn3)CC2)n1)c1ccc(C(C)C)cc1Br` [compound 280], under 0.5 µM.

Consider `Cc1cc(C)nc(N(CC#N)c2ccc(C(C)C)cc2Br)n1` [compound 32], for which the Ki was under 0.5 µM. On the same count and under the same terms, under `CCN(c1nc(C)nc(N2CCSCC2)n1)c1ccc(C(C)C)cc1I` [compound 135] stands under 0.5 µM; under `CCN(c1nc(C)cc(CN2CCN(c3ncccn3)CC2)n1)c1ccc(C(C)C)cc1Br` [compound 281], under 0.5 µM; under `CCN(c1nc(C)cc(COc2cccc(N(C)C)c2)n1)c1ccc(C(C)C)cc1Br` [compound 215], 0.501 to 2 µM.
